From patent publication US20240092784A1, “CONDENSED HETEROCYCLIC COMPOUND” (NISSAN CHEMICAL CORPORATION, priority 2020, published 2024)

target: human SPR (Homo sapiens (Human), UniProt P35270); assay: Evaluation Example 2: Measurement of human SPR inhibitory activity (seven concentrations, sepiapterin absorbance at 420 nm); type: biochemical; conditions: sepiapterin absorbance, Table 41, read-out: concentration at 50% inhibition of human SPR (IC50)
In short: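 His-tagged full-length human SPR (1-261) was expressed in E. coli and the tag removed. Enzyme at 150 ng/mL in 100 mM Tris-HCl pH 7.5/0.01% BSA was mixed with compound (0.14–100 nM, seven points), 120 μM sepiapterin and 160 μM NADPH, both as added-solution concentrations. After 240 min at room temperature, remaining sepiapterin was read at 420 nm to give percent inhibition.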

Chain of human SPR (P35270 whole entry): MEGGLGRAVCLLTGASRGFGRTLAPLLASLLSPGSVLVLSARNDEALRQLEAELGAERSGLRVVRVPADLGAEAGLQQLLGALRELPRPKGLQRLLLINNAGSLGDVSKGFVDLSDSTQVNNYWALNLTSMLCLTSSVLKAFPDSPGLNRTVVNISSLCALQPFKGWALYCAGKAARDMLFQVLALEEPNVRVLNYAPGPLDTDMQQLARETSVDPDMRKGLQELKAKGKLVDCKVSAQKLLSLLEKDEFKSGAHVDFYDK

In order of rising IC50:
1. CC(C)Cn1c(=O)c(C(=O)NC2CC2)c(O)n2ncc(/C=C/C(=O)N3CC(C#N)C3)c12 [Synthesis Example 734, (E)-3-(3-(3-Cyanoazetidin-1-yl)-3-oxoprop-1-en-1-yl)-N-cyclopropyl-7-hydroxy-4-isobutyl-5-oxo-4,5-dihydropyrazolo[1,5-a]pyrimidine-6-carboxamide]  0.73 nM
2. Cc1nn2c(O)c(C(=O)NC3CC3)c(=O)n(CC(C)(C)F)c2c1/C=C/C(=O)N1CCOCC1 [Synthesis Example 747, (E)-N-Cyclopropyl-4-(2-fluoro-2-methylpropyl)-7-hydroxy-2-methyl-3-(3-morpholino-3-oxoprop-1-en-1-yl)-5-oxo-4,5-dihydropyrazolo[1,5-a]pyrimidine-6-carboxamide]  0.74 nM
3. Cc1nn2c(O)c(C(=O)NC3CC3)c(=O)n(CC(C)C)c2c1/C=C/C(=O)N1CCC[C@@H]1C#N [Synthesis Example 749, (R,E)-3-(3-(2-Cyanopyrrolidin-1-yl)-3-oxoprop-1-en-1-yl)-N-cyclopropyl-7-hydroxy-4-isobutyl-2-methyl-5-oxo-4,5-dihydropyrazolo[1,5-a]pyrimidine-6-carboxamide]  0.93 nM
4. COCCN(C)C(=O)/C=C/c1c(C)nn2c(O)c(C(=O)NC3CC3)c(=O)n(CC(C)C)c12 [Synthesis Example 750, (E)-N-Cyclopropyl-7-hydroxy-4-isobutyl-3-(3-((2-methoxyethyl)(methyl)amino)-3-oxoprop-1-en-1-yl)-2-methyl-5-oxo-4,5-dihydropyrazolo[1,5-a]pyrimidine-6-carboxamide]  0.96 nM
5. CC(C)Cn1c(=O)c(C(=O)NC2CC2)c(O)n2ncc(/C=C/C(=O)N3C[C@@H](C)OC[C@@H]3C)c12 [Synthesis Example 741, N-Cyclopropyl-3-((E)-3-((2R,5S)-2,5-dimethylmorpholino)-3-oxoprop-1-en-1-yl)-7-hydroxy-4-isobutyl-5-oxo-4,5-dihydropyrazolo[1,5-a]pyrimidine-6-carboxamide]  0.98 nM
6. CC(C)Cn1c(=O)c(C(=O)NC2CC2)c(O)n2ncc(/C=C/C(=O)N3CCC[C@@H]3c3cccnc3)c12 [Synthesis Example 748, (R,E)-N-Cyclopropyl-7-hydroxy-4-isobutyl-5-oxo-3-(3-oxo-3-(2-(pyridin-3-yl)pyrrolidin-1-yl)prop-1-en-1-yl)-4,5-dihydropyrazolo[1,5-a]pyrimidine-6-carboxamide]  1.01 nM
7. CC(C)Cn1c(=O)c(C(=O)NC2CC2)c(O)n2ncc(/C=C/C(=O)N3CCOc4ncccc43)c12 [Synthesis Example 729, (E)-N-Cyclopropyl-3-(3-(2,3-dihydro-1H-pyrido[2,3-b][1,4]oxazin-1-yl)-3-oxoprop-1-en-1-yl)-7-hydroxy-4-isobutyl-5-oxo-4,5-dihydropyrazolo[1,5-a]pyrimidine-6-carboxamide]  1.05 nM
8. CC(C)Cn1c(=O)c(C(=O)NC2CC2)c(O)n2ncc(/C=C/C(=O)N3CCOc4cnccc43)c12 [Synthesis Example 728, (E)-N-Cyclopropyl-3-(3-(2,3-dihydro-1H-pyrido[3,4-b][1,4]oxazin-1-yl)-3-oxoprop-1-en-1-yl)-7-hydroxy-4-isobutyl-5-oxo-4,5-dihydropyrazolo[1,5-a]pyrimidine-6-carboxamide]  1.07 nM
9. CC(C)Cn1c(=O)c(C(=O)NC2CC2)c(O)n2ncc(/C=C/C(=O)N3CCCC34CCN(C)CC4)c12 [Synthesis Example 736, (E)-N-Cyclopropyl-7-hydroxy-4-isobutyl-3-(3-(8-methyl-1,8-diazaspiro[4.5]decan-1-yl)-3-oxoprop-1-en-1-yl)-5-oxo-4,5-dihydropyrazolo[1,5-a]pyrimidine-6-carboxamide]  1.07 nM
10. CC(C)Cn1c(=O)c(C(=O)NC2CC2)c(O)n2ncc(/C=C/C(=O)N3CCC[C@H]3C(C)(C)O)c12 [Synthesis Example 730, (S,E)-N-Cyclopropyl-7-hydroxy-3-(3-(2-(2-hydroxypropan-2-yl)pyrrolidin-1-yl)-3-oxoprop-1-en-1-yl)-4-isobutyl-5-oxo-4,5-dihydropyrazolo[1,5-a]pyrimidine-6-carboxamide]  1.26 nM
11. CC(C)Cn1c(=O)c(C(=O)NC2CC2)c(O)n2ncc(/C=C/C(=O)N3CC[C@@H](C(C)(C)O)C3)c12 [Synthesis Example 743, (R,E)-N-Cyclopropyl-7-hydroxy-3-(3-(3-(2-hydroxypropan-2-yl)pyrrolidin-1-yl)-3-oxoprop-1-en-1-yl)-4-isobutyl-5-oxo-4,5-dihydropyrazolo[1,5-a]pyrimidine-6-carboxamide]  1.33 nM
12. CCN1CCN(C(=O)/C=C/c2c(C)nn3c(O)c(C(=O)NC4CC4)c(=O)n(CC(C)C)c23)[C@H](C)C1 [Synthesis Example 751, (R,E)-N-Cyclopropyl-3-(3-(4-ethyl-2-methylpiperazin-1-yl)-3-oxoprop-1-en-1-yl)-7-hydroxy-4-isobutyl-2-methyl-5-oxo-4,5-dihydropyrazolo[1,5-a]pyrimidine-6-carboxamide]  1.34 nM
13. CC(C)Cn1c(=O)c(C(=O)NC2CC2)c(O)n2ncc(/C=C/C(=O)N3CCOc4ccncc43)c12 [Synthesis Example 738, (E)-N-Cyclopropyl-3-(3-(2,3-dihydro-4H-pyrido[4,3-b][1,4]oxazin-4-yl)-3-oxoprop-1-en-1-yl)-7-hydroxy-4-isobutyl-5-oxo-4,5-dihydropyrazolo[1,5-a]pyrimidine-6-carboxamide]  1.39 nM
14. CC(C)Cn1c(=O)c(C(=O)NC2CC2)c(O)n2ncc(/C=C/C(=O)N3CCOc4ccccc43)c12 [Synthesis Example 739, (E)-N-Cyclopropyl-3-(3-(2,3-dihydro-4H-benz[b][1,4]oxazin-4-yl)-3-oxoprop-1-en-1-yl)-7-hydroxy-4-isobutyl-5-oxo-4,5-dihydropyrazolo[1,5-a]pyrimidine-6-carboxamide]  1.54 nM
15. CC(C)Cn1c(=O)c(C(=O)NC2CC2)c(O)n2ncc(/C=C/C(=O)N3CCCC34CCN(C(C)C)CC4)c12 [Synthesis Example 746, (E)-N-Cyclopropyl-7-hydroxy-4-isobutyl-3-(3-(8-isopropyl-1,8-diazaspiro[4.5]decan-1-yl)-3-oxoprop-1-en-1-yl)-5-oxo-4,5-dihydropyrazolo[1,5-a]pyrimidine-6-carboxamide]  1.54 nM
16. CC(C)Cn1c(=O)c(C(=O)NC2CC2)c(O)n2ncc(/C=C/C(=O)N3CCN(CC4CC(F)(F)C4)C[C@@H]3C)c12 [Synthesis Example 744, (S,E)-N-Cyclopropyl-3-(3-(4-((3,3-difluorocyclobutyl)methyl)-2-methylpiperazin-1-yl)-3-oxoprop-1-en-1-yl)-7-hydroxy-4-isobutyl-5-oxo-4,5-dihydropyrazolo[1,5-a]pyrimidine-6-carboxamide]  1.57 nM
17. CC(C)Cn1c(=O)c(C(=O)NC2CC2)c(O)n2ncc(/C=C/C(=O)N3CCc4ccncc43)c12 [Synthesis Example 742, (E)-N-Cyclopropyl-3-(3-(2,3-dihydro-1H-pyrrolo[2,3-c]pyridin-1-yl)-3-oxoprop-1-en-1-yl)-7-hydroxy-4-isobutyl-5-oxo-4,5-dihydropyrazolo[1,5-a]pyrimidine-6-carboxamide]  1.59 nM
18. CC(C)Cn1c(=O)c(C(=O)NC2CC2)c(O)n2ncc(/C=C/C(=O)N3CCc4cc(C#N)ccc43)c12 [Synthesis Example 732, (E)-3-(3-(5-Cyanoindolin-1-yl)-3-oxoprop-1-en-1-yl)-N-cyclopropyl-7-hydroxy-4-isobutyl-5-oxo-4,5-dihydropyrazolo[1,5-a]pyrimidine-6-carboxamide]  1.7 nM
19. CC(C)Cn1c(=O)c(C(=O)NC2CC2)c(O)n2ncc(/C=C/C(=O)N3CCc4cnccc43)c12 [Synthesis Example 740, (E)-N-Cyclopropyl-3-(3-(2,3-dihydro-1H-pyrrolo[3,2-c]pyridin-1-yl)-3-oxoprop-1-en-1-yl)-7-hydroxy-4-isobutyl-5-oxo-4,5-dihydropyrazolo[1,5-a]pyrimidine-6-carboxamide]  1.81 nM
20. CC(C)Cn1c(=O)c(C(=O)NC2CC2)c(O)n2ncc(/C=C/C(=O)N3CCN(CC4CC(F)(F)C4)C[C@H]3C)c12 [Synthesis Example 745, (R,E)-N-Cyclopropyl-3-(3-(4-((3,3-difluorocyclobutyl)methyl)-2-methylpiperazin-1-yl)-3-oxoprop-1-en-1-yl)-7-hydroxy-4-isobutyl-5-oxo-4,5-dihydropyrazolo[1,5-a]pyrimidine-6-carboxamide]  1.85 nM
21. CC(=O)N1CCC2(CCCN2C(=O)/C=C/c2cnn3c(O)c(C(=O)NC4CC4)c(=O)n(CC(C)C)c23)CC1 [Synthesis Example 737, (E)-3-(3-(8-Acetyl-1,8-diazaspiro[4.5]decan-1-yl)-3-oxoprop-1-en-1-yl)-N-cyclopropyl-7-hydroxy-4-isobutyl-5-oxo-4,5-dihydropyrazolo[1,5-a]pyrimidine-6-carboxamide]  1.9 nM
22. CC(C)Cn1c(=O)c(C(=O)NC2CC2)c(O)n2ncc(/C=C/C(=O)N3CCCC34CCN(C(=O)OC(C)(C)C)CC4)c12 [Synthesis Example 733, Tert-butyl (E)-1-(3-(6-(cyclopropylcarbamoyl)-7-hydroxy-4-isobutyl-5-oxo-4,5-dihydropyrazolo[1,5-a]pyrimidin-3-yl)acryloyl)-1,8-diazaspiro[4.5]decane-8-carboxylate]  2.16 nM
23. CC(C)Cn1c(=O)c(C(=O)NC2CC2)c(O)n2ncc(/C=C/C(=O)N3CCc4cc(F)ccc43)c12 [Synthesis Example 731, (E)-N-Cyclopropyl-3-(3-(5-fluoroindolin-1-yl)-3-oxoprop-1-en-1-yl)-7-hydroxy-4-isobutyl-5-oxo-4,5-dihydropyrazolo[1,5-a]pyrimidine-6-carboxamide]  2.89 nM
24. CC(C)Cn1c(=O)c(C(=O)NC2CC2)c(O)n2ncc(/C=C/C(=O)N3CCc4cc(Br)ccc43)c12 [Synthesis Example 735, (E)-3-(3-(5-Bromoindolin-1-yl)-3-oxoprop-1-en-1-yl)-N-cyclopropyl-7-hydroxy-4-isobutyl-5-oxo-4,5-dihydropyrazolo[1,5-a]pyrimidine-6-carboxamide]  7.3 nM
